# Data taken from paper PMC5608341, “The human VGF-derived bioactive peptide TLQP-21 binds heat shock 71 kDa protein 8 (HSPA8)on the surface of SH-SY5Y cells” (PLoS ONE, 2017).
# pKd: −log10 of the molar value. Where no end group is shown, it is not given here. The star is where a group is joined. Biotin = O=C1N[C@H]2[C@H](CS[C@H]2CCCCC(=O)*)N1
# Experiments:
# HSPA8 [1] = conditions: pooled fractions 4 and 5, anti-HSPA8 1:500, three replicates, versus control fractions
# Method: A monomeric avidin column (Thermo Scientific) was washed with 8 ml PBS followed by addition of 6 ml (2 mM D-biotin in PBS, pH = 7.2) to block any non-reversible biotin binding sites. Regeneration buffer (0.1M glycine, pH 2.8, 12 ml) was added to remove biotin from the reversible binding sites followed by washing with 8 ml of PBS. One ml of 0.1 mM biotin-TLQP-21 was mixed with 900 μl of PBS and 100 μl of 1mM TCEP and the resulting solution was applied to the column, which was incubated for an hour at room temperature. The column was then washed with 12 ml of PBS. A 2ml solution containing 700 μl of SH-SY5Y cell lysate with a protein concentration of 10μg/μl was diluted with 1.3 ml of PBS and applied then to the column. The column was then washed with 12 ml of PBS, and eluted with 10 ml of blocking/elution buffer. Fractions of 500 μl were collected and kept on ice until further use for analysis by SYPRO® Ruby Protein Gel Stain (Lonza), and Western blot. As a control, cell lysate solution was added under the same conditions to a column to which biotin-TLQP-21 was not attached.
# After electrophoresis, as described earlier, proteins were transferred onto PVDF membranes (Millipore, Bedford) using semi-dry method (Trans-blot SD semi-dry transfer cell, Biorad). […]
# [2] = tested on: HSPA8 on the surface of SH-SY5Y cells; experiment: Crosslinking of biotinylated TLQP-21 to live SH-SY5Y surface membrane proteins, avidin affinity, Western blot; format: binding, human; conditions: 50 μM biotin-TLQP-21, 1 mM Sulfo-EMCS, 1 hour, room temperature; versus control without peptide
# Method: After electrophoresis, as described earlier, proteins were transferred onto PVDF membranes (Millipore, Bedford) using semi-dry method (Trans-blot SD semi-dry transfer cell, Biorad). The membranes were then blocked 5% BSA in TBS-T solution (Tris-buffered saline with 0.1% tween 20, pH = 7.6) for 1 hour at room temperature, and probed with anti-HSC70/HSPA8 (Abcam) antibody at 1:500 dilution. Anti-rabbit antibody (Dako) at a 1:2000 dilution was used as the secondary antibody. Subsequently, the membrane was incubated with Luminata Forte Western HRP substrate [Merck Millipore] for 5 minutes and developed using Hypercassette and Amersham hyperfilm (GE Healthcare).
# SH-SY5Y cells were grown as described above until confluence. Culture medium was removed, cells were washed three times with cold PBS and incubated with 2 mL of PBS containing 1 mM Sulfo-EMCS with 50 μM biotin-TLQP-21 for 1 hour at room temperature. Control cells were incubated under the same conditions with the same reaction mixture lacking biotin-TLQP-21. The cross-linking reaction was stopped adding Tris-HCl, pH 7.8 to a final concentration 50 mM. Cells were washed twice with cold PBS and solubilized in lysis buffer (20 mM HEPES pH 7.4, 2 mM EGTA, 1 mM DTT, 1 mM sodium orthovanadate, 1% Triton X-100, 10% glycerol, 2 μM leupeptin, 400 μM PMSF, 50 μM β-glycerophosphate and 100 μg/ml aprotinin). […]
# [3] = tested on: Heat shock cognate 71 kDa protein (HSPA8/HSC70); experiment: Avidin-agarose affinity chromatography of SH-SY5Y cell homogenate with biotin-TLQP-21, SDS-PAGE/SYPRO Ruby and MASCOT MS/MS identification; HSPA8; format: binding, human; conditions: fractions 4-5, control column without biotin-TLQP-21
# Method: Portions (25 μl) of each elution fraction from avidin-agarose affinity chromatography were boiled in 2x Laemmli buffer and loaded to a 10% SDS-PAGE gel. Electrophoresis was carried out at 200V for 60 minutes. After completion, the gel was washed in dH2O for 10 minutes. […] The gel was then transferred to a clean staining container, and washed for 5 minutes with fixing solution followed by washing for 5 minutes in dH2O.Finally, the gel was imaged in a Molecular Imager Gel Doc system (Bio Rad, Hercules) using the highest sensitivity of the CCD camera (CoolSNAP HQ2, Roper Scientific) at a resolution of 1392 x 1040 pixels with 12 bit gray scale levels per pixel. […] Extracted peptides were analyzed by LC-MS/MS. […] Ionized peptides were detected in a Bruker Amazon ETD ion trap. Automated analysis of mass data was performed by Data Analysis 4.0 and BioTools 3.2 from Bruker Daltonik GmbH. Database search was done with the Mascot v2.3 search tool (Matrix Science) screening SwissProt (release 57.15). Searches were limited to human taxonomy selecting carbamidomethyl cysteine as a fixed modification and oxidized methionine as potential variable modification. […] All spectra and database results were scrutinized manually in details using the above software, especially in the case of identifications based on one peptide hit. […]
# HSPA8 [4] = molecular target: T1, HSPA8 (Homo sapiens, UniProt P11142); conditions: ref [45]; read-out: affinity of HSPA8 for the phosphorylated peptide P140; cited from earlier work
# T1 construct: HSPA8 immobilization was performed by adding 15 μl of 25 μg/ml of protein in 20 mM sodium acetate buffer
# T1 sequence (P11142 whole entry): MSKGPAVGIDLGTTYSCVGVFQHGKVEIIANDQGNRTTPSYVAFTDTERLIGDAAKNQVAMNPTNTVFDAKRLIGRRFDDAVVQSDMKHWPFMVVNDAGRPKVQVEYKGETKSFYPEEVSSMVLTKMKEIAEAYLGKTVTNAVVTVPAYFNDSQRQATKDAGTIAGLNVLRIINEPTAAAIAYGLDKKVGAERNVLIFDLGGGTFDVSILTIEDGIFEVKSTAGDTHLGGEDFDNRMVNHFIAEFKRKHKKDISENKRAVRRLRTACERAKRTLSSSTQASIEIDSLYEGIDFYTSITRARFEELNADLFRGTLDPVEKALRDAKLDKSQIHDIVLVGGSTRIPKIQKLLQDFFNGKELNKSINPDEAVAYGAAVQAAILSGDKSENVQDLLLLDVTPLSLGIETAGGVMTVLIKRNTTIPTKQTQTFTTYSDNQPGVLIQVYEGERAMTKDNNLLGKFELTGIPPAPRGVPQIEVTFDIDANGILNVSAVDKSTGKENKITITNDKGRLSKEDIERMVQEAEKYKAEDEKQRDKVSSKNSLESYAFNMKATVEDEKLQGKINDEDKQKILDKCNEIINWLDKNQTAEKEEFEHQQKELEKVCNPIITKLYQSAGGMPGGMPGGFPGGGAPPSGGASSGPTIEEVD
# [5] = tested on: globular head of the complement component C1q receptor (gC1qR); conditions: ref [29]; cited from earlier work
# Text: (§1) Remarkably, despite the large volume of data on effects of VGF-derived peptides, very little is known about their receptors, downstream signaling routes and mechanisms of action. […] We reasoned that the neuroblastoma cell line SH-SY5Y would be a good model to study receptors and downstream mechanisms of VGF-derived peptides, given the substantial expression and secrete levels of VGF and VGF-derived ...
# [6] = tested on: complement component-3a receptor 1 (C3AR1); conditions: ref [27]–[28]; cited from earlier work
# Text: as §1
substance,measurement,setting,value
"Biotin-TLQPPSALRRRHYHHALPPSRC [biotin-TLQP-21, amino-terminally biotinylated human TLQP-21 containing an extra cysteine residue at the C-terminus]",Western blot detection of HSPA8 in eluate of biotin-TLQP-21 column,HSPA8 [1],confirmed the ~70 kDa protein as HSPA8 but not in the controls
same,cross-linking to HSPA8 on live cell surface,[2],A positive ~70kDa band corresponding to HSPA8 was detected
same,~70 kDa protein bound on biotin-TLQP-21 column (SYPRO Ruby),[3],A ~70 kDa protein was bound
same,~70 kDa protein bound on biotin-TLQP-21 column (SYPRO Ruby),[3]; listed as biotinyl-TLQP-21,a protein band of ∼70 kDa was detected by SYPRO Ruby staining
"P140: phosphorylated peptide P140, corresponds to a portion of the spliceosomal U1-70K snRNP protein, recognized by lupus CD4+ T cells (RIHMVYSKRSGKPRGYAFIEY; phospho-Ser140 (10th residue of the peptide); P140/Lupuzor is conventionally U1-70K (SNRNP70) 131-151)",pKd,HSPA8 [4],~5.15
"TLQPPASSRRRHFHHALPPAR [murine TLQP-21, mouse TLQP-21]",gC1qR as receptor,[5],identified as potential receptors
same,C3AR1 as receptor,[6],identified as potential receptors
